Data taken from patent US6355799B1, “Substituted benzene compounds, process for their preparation, and herbicidal and defoliant compositions containing them” (ISK Americas Incorporated, priority 1997, dated 2002).

Experiments:
Format in all cases: in vivo
[1] = test system: redroot pigweed (Amaranthus retroflexus, AMARE); experiment: Pre-emerge test, greenhouse herbicide activity screening; conditions: pre-emerge, 14 days after application, rating scale 0-100
In short: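 Plants grown in 10 cm pots of sandy loam mix received acetone-dissolved compounds through a moving flat-fan nozzle. Doses ranged from 15 to 1000 g ai/ha. Pre-emerge pots were seeded one day earlier, post-emerge pots 8–21 days earlier. Fourteen days on, each pot was graded 0–100 for damage.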

[2] = test system: barnyardgrass (Echinochloa crus-galli, ECHCG); experiment: as above; conditions: pre-emerge, 14 days after application, rating scale 0-100
In short: (§1)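 Herbicidal damage is scored 0 (none) to 100 (complete plant death) two weeks after a simulated field spray. Rates span 15–1000 g ai/ha, delivered in acetone at 187 l/ha. For post-emergence treatments, plants have 2–3 leaves and the spray carries 0.25% v/v non-ionic surfactant.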

[3] = test system: green foxtail (Setaria viridis, SETVI); experiment: as above; conditions: pre-emerge, 14 days after application, rating scale 0-100
In short: as §1

[4] = test system: ivyleaf morningglory (Ipomoea hederacea, IPOHE); experiment: as above; conditions: pre-emerge, 14 days after application, rating scale 0-100
In short: as §1

[5] = test system: johnsongrass (Sorghum halepense, SORHA); experiment: as above; conditions: pre-emerge, 14 days after application, rating scale 0-100
In short: as §1

[6] = test system: lambsquarters (Chenopodium album, CHEAL); experiment: as above; conditions: pre-emerge, 14 days after application, rating scale 0-100
In short: as §1

[7] = test system: large crabgrass (Digitaria sanguinalis, DIGSA); experiment: as above; conditions: pre-emerge, 14 days after application, rating scale 0-100
In short: as §1

[8] = test system: sicklepod (Cassia obtusifolia, CASOB); experiment: as above; conditions: pre-emerge, 14 days after application, rating scale 0-100
In short: as §1

[9] = test system: velvetleaf (Abutilon theophrasti, ABUTH); experiment: as above; conditions: pre-emerge, 14 days after application, rating scale 0-100
In short: as §1

[10] = test system: field corn (Zea mays L., var. Dekalb 535, CORN); experiment: Pre-emerge test, crop safety; conditions: pre-emerge, 14 days after application, rating scale 0-100
In short: (§2)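 Compounds in acetone were track-sprayed at 187 l/ha, 15–1000 g ai/ha, onto sandy loam pots. Pre-emerge seeds were sown one day before spraying, with surface watering afterwards. Post-emerge plants were at the 2–3 leaf stage and sprayed with 0.25% v/v non-ionic surfactant. Injury was rated 0–100 at 14 days.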

[11] = test system: upland rice (Oryza sp., var. Tebonnet, RICE); experiment: Pre-emerge test, crop safety; conditions: pre-emerge, 14 days after application, rating scale 0-100
In short: as §2

[12] = test system: barnyardgrass (Echinochloa crus-galli, ECHCG); experiment: Post-emerge test, greenhouse herbicide activity screening; conditions: post-emerge, 14 days after application, rating scale 0-100
In short: (§3)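 Applied at 15–1000 g ai/ha from acetone in 187 l/ha spray volume. Post-emergence applications included 0.25% v/v non-ionic surfactant and reached plants sown 8–21 days before. Pre-emergence applications were incorporated by surface watering. Efficacy or crop damage was rated on a 0–100 scale after 14 days.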

[13] = test system: green foxtail (Setaria viridis, SETVI); experiment: as above; conditions: post-emerge, 14 days after application, rating scale 0-100
In short: as §3

[14] = test system: ivyleaf morningglory (Ipomoea hederacea, IPOHE); experiment: as above; conditions: post-emerge, 14 days after application, rating scale 0-100
In short: as §3

[15] = test system: johnsongrass (Sorghum halepense, SORHA); experiment: as above; conditions: post-emerge, 14 days after application, rating scale 0-100
In short: as §3

[16] = test system: lambsquarters (Chenopodium album, CHEAL); experiment: as above; conditions: post-emerge, 14 days after application, rating scale 0-100
In short: as §3

[17] = test system: large crabgrass (Digitaria sanguinalis, DIGSA); experiment: as above; conditions: post-emerge, 14 days after application, rating scale 0-100
In short: as §3

[18] = test system: redroot pigweed (Amaranthus retroflexus, AMARE); experiment: as above; conditions: post-emerge, 14 days after application
In short: as §3

[19] = test system: sicklepod (Cassia obtusifolia, CASOB); experiment: as above; conditions: post-emerge, 14 days after application, rating scale 0-100
In short: as §3

[20] = test system: velvetleaf (Abutilon theophrasti, ABUTH); experiment: as above; conditions: post-emerge, 14 days after application, rating scale 0-100
In short: as §3

[21] = test system: field corn (Zea mays L., var. Dekalb 535, CORN); experiment: Post-emerge test, crop safety; conditions: post-emerge, 14 days after application, rating scale 0-100
In short: as §1

[22] = test system: upland rice (Oryza sp., var. Tebonnet, RICE); experiment: Post-emerge test, crop safety; conditions: post-emerge, 14 days after application, rating scale 0-100
In short: as §1

COc1c(Cl)cc(F)c(-n2c(=O)cc(C(F)(F)F)n(C)c2=O)c1SCCO [17-5]
60: phytotoxicity rating DIGSA ([7]; 250 g ai/ha) | phytotoxicity rating ABUTH ([9]; 63 g ai/ha)
10: phytotoxicity rating RICE ([11]; 250 g ai/ha) | Post-emerge Herbicidal Activity AMARE (phytotoxicity rating) ([18]; 63 g ai/ha, rating scale 0-100 (0 no damage, 100 complete death)) | Post-emerge Herbicidal Activity CASOB (phytotoxicity rating) ([19]; 63 g ai/ha) | Post-emerge Herbicidal Activity CORN (crop damage rating) ([21]; 250 g ai/ha)
0: phytotoxicity rating ECHCG ([2]; 63 g ai/ha) | phytotoxicity rating ECHCG ([2]; 250 g ai/ha) | phytotoxicity rating SETVI ([3]; 63 g ai/ha) | phytotoxicity rating SORHA ([5]; 63 g ai/ha) | phytotoxicity rating DIGSA ([7]; 63 g ai/ha) | phytotoxicity rating CASOB ([8]; 63 g ai/ha) | phytotoxicity rating CORN ([10]; 63 g ai/ha) | phytotoxicity rating CORN ([10]; 250 g ai/ha) | phytotoxicity rating RICE ([11]; 63 g ai/ha) | Post-emerge Herbicidal Activity ECHCG (phytotoxicity rating) ([12]; 63 g ai/ha) | Post-emerge Herbicidal Activity ECHCG (phytotoxicity rating) ([12]; 250 g ai/ha) | Post-emerge Herbicidal Activity SETVI (phytotoxicity rating) ([13]; 63 g ai/ha) | Post-emerge Herbicidal Activity SETVI (phytotoxicity rating) ([13]; 250 g ai/ha) | Post-emerge Herbicidal Activity SORHA (phytotoxicity rating) ([15]; 63 g ai/ha) | Post-emerge Herbicidal Activity SORHA (phytotoxicity rating) ([15]; 250 g ai/ha) | Post-emerge Herbicidal Activity DIGSA (phytotoxicity rating) ([17]; 63 g ai/ha) | Post-emerge Herbicidal Activity DIGSA (phytotoxicity rating) ([17]; 250 g ai/ha) | Post-emerge Herbicidal Activity CORN (crop damage rating) ([21]; 63 g ai/ha) | Post-emerge Herbicidal Activity RICE (crop damage rating) ([22]; 63 g ai/ha) | Post-emerge Herbicidal Activity RICE (crop damage rating) ([22]; 250 g ai/ha)
80: phytotoxicity rating AMARE ([1]; 63 g ai/ha) | Post-emerge Herbicidal Activity CHEAL (phytotoxicity rating) ([16]; 250 g ai/ha) | Post-emerge Herbicidal Activity ABUTH (phytotoxicity rating) ([20]; 250 g ai/ha)
90: phytotoxicity rating CHEAL ([6]; 63 g ai/ha)
30: phytotoxicity rating IPOHE ([4]; 63 g ai/ha) | phytotoxicity rating CASOB ([8]; 250 g ai/ha) | Post-emerge Herbicidal Activity IPOHE (phytotoxicity rating) ([14]; 63 g ai/ha)
40: Post-emerge Herbicidal Activity CHEAL (phytotoxicity rating) ([16]; 63 g ai/ha) | Post-emerge Herbicidal Activity AMARE (phytotoxicity rating) ([18]; 250 g ai/ha, rating scale 0-100)
100: phytotoxicity rating AMARE ([1]; 250 g ai/ha) | phytotoxicity rating CHEAL ([6]; 250 g ai/ha) | phytotoxicity rating ABUTH ([9]; 250 g ai/ha)
35: phytotoxicity rating IPOHE ([4]; 250 g ai/ha)
20: phytotoxicity rating SORHA ([5]; 250 g ai/ha) | Post-emerge Herbicidal Activity CASOB (phytotoxicity rating) ([19]; 250 g ai/ha)
50: phytotoxicity rating SETVI ([3]; 250 g ai/ha) | Post-emerge Herbicidal Activity ABUTH (phytotoxicity rating) ([20]; 63 g ai/ha)
70: Post-emerge Herbicidal Activity IPOHE (phytotoxicity rating) ([14]; 250 g ai/ha)
